In general, GI50 refers to the concentration that inhibits growth by half. Broadly, the TGI is the concentration at which net growth stops. High values mean less potent growth arrest, low ones more potent growth arrest.

These results are taken from PubChem BioAssay (NCI).

Among the test systems are HL-60(TB) leukemia; UACC-62 melanoma; SF-539 CNS; MDA-MB-231 breast; SK-MEL-5 melanoma; EKVX NSCLC; RPMI-8226 leukemia; UO-31 renal; MALME-3M melanoma; MCF7 breast.
What all share (assay): DTP human tumour cell line panel, 48 h

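Compound exposure: 48 hours, 5 concentrations, 96-well plates. GI50 = concentration required for 50% inhibition of growth. TGI is the concentration that stops growth completely.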

On to `COc1cc(OCCCN2CCCC2)ccc1Nc1ncc(Cl)c(Nc2ccccc2P(C)(C)=O)n1`, for which the GI50 in the assay with HL-60(TB) leukemia is 1.36 µM; in the assay on UACC-62 melanoma, 2.43 µM; in the assay on SF-539 CNS, 3.49 µM; with MDA-MB-231 breast, 1.56 µM; with SK-MEL-5 melanoma, 3.71 µM; with EKVX NSCLC, 0.828 µM. Moreover, the GI50 is 2.68 µM in the assay on RPMI-8226 leukemia, 2.28 µM in the assay with UO-31 renal, 6.06 µM with MALME-3M melanoma and 0.867 µM with MCF7 breast. Besides, the TGI with HL-60(TB) leukemia was 6.19 µM; with UACC-62 melanoma, 12.9 µM; with SF-539 CNS, 12.8 µM; with MDA-MB-231 breast, 11.7 µM; in the assay on SK-MEL-5 melanoma it was 15.8 µM; with EKVX NSCLC, above 20.5 µM. For the same compound, the TGI was 12.2 µM in the assay with RPMI-8226 leukemia, 6.31 µM in the assay with UO-31 renal, 22.6 µM in the assay on MALME-3M melanoma and 19.3 µM with MCF7 breast.
Turning to `COc1ccc2c(c1)/C(=C\c1c(-c3ccccc3)nc3sccn13)C(=O)N2`, the GI50 with HL-60(TB) leukemia is 5.09 µM; with UACC-62 melanoma, 3.52 µM; in the assay with SF-539 CNS, 8.23 µM; in the assay with MDA-MB-231 breast, 6.92 µM; in the assay with SK-MEL-5 melanoma, 6.06 µM; with EKVX NSCLC it was 12.1 µM. The GI50 with RPMI-8226 leukemia was 1.57 µM; in the assay on UO-31 renal it was 7.29 µM; in the assay with MALME-3M melanoma it was 39.7 µM; in the assay on MCF7 breast, above 100 µM. The TGI in the assay with HL-60(TB) leukemia was above 35.6 µM; in the assay on UACC-62 melanoma, 15.6 µM; in the assay on SF-539 CNS, 20.5 µM; in the assay with MDA-MB-231 breast, 23.5 µM; in the assay with SK-MEL-5 melanoma it was 21.3 µM; with EKVX NSCLC it was above 43.6 µM. The TGI in the assay on RPMI-8226 leukemia is 5.51 µM; with UO-31 renal it was above 43.7 µM; in the assay with MALME-3M melanoma it was 97.1 µM; in the assay with MCF7 breast, above 100 µM.
As to `C[C@]12CC[C@@H]3c4ccc(O)cc4CC[C@H]3[C@@H]1CC(Cc1ccccc1)(Cc1ccccc1)C2=O`, the GI50 with HL-60(TB) leukemia was 4.75 µM; in the assay with UACC-62 melanoma, 15.1 µM; with SF-539 CNS it was 18.6 µM; in the assay on MDA-MB-231 breast, 14.1 µM; in the assay on SK-MEL-5 melanoma, 17.9 µM; in the assay on EKVX NSCLC, 10.9 µM. In addition, the GI50 in the assay on RPMI-8226 leukemia is 5.57 µM; in the assay on UO-31 renal, 15.8 µM; with MALME-3M melanoma, 23.5 µM; with MCF7 breast, 15.6 µM. Moreover, the TGI in the assay on HL-60(TB) leukemia was 20.9 µM; with UACC-62 melanoma it was 29.3 µM; with SF-539 CNS it was 36.8 µM; in the assay with MDA-MB-231 breast, 28.5 µM; in the assay on SK-MEL-5 melanoma it was 31.8 µM; with EKVX NSCLC, 24.7 µM. For the same compound, the TGI came out at 23.5 µM with RPMI-8226 leukemia, 31.3 µM with UO-31 renal, 48.9 µM with MALME-3M melanoma and 46.8 µM in the assay with MCF7 breast.
As for `O=c1cc(-c2ccccc2)oc2c(O)c(O)ccc12`, the GI50 with HL-60(TB) leukemia is 11.1 µM; in the assay on UACC-62 melanoma it was 13.8 µM; in the assay with SF-539 CNS, 14.6 µM; in the assay on MDA-MB-231 breast, 23.2 µM; in the assay with SK-MEL-5 melanoma it was 12.5 µM; with EKVX NSCLC, 18.4 µM. In addition, the GI50 with RPMI-8226 leukemia is 4.03 µM; with UO-31 renal, 3.02 µM; in the assay with MALME-3M melanoma, 17.4 µM; in the assay on MCF7 breast, 20 µM. Also, the TGI is 55.3 µM in the assay on HL-60(TB) leukemia; 66.4 µM in the assay with UACC-62 melanoma; above 100 µM in the assay with SF-539 CNS; above 100 µM in the assay on MDA-MB-231 breast; 45.2 µM with SK-MEL-5 melanoma; above 100 µM in the assay on EKVX NSCLC. Also, the TGI is 50.9 µM with RPMI-8226 leukemia, 29 µM in the assay on UO-31 renal, 60.2 µM with MALME-3M melanoma and above 100 µM in the assay on MCF7 breast.
On to `CCCCNC(=O)Oc1ccc(/C(=C(\C)c2ccc(OC)cc2)c2ccc(OCCN3CCCCC3)cc2)cc1`, for which the GI50 was 1.53 µM in the assay on HL-60(TB) leukemia; 2.06 µM in the assay on UACC-62 melanoma; 1.64 µM with SF-539 CNS; 2.08 µM with MDA-MB-231 breast; 1.68 µM with SK-MEL-5 melanoma; 5.18 µM in the assay on EKVX NSCLC. Further, the GI50 in the assay with RPMI-8226 leukemia was 2.14 µM; with UO-31 renal, 1.71 µM; with MALME-3M melanoma it was 1.74 µM; in the assay on MCF7 breast it was 0.0721 µM. Further, the TGI with HL-60(TB) leukemia turned out to be 3.58 µM; in the assay with UACC-62 melanoma it was 4.1 µM; in the assay with SF-539 CNS, 3.12 µM; in the assay with MDA-MB-231 breast, 3.83 µM; with SK-MEL-5 melanoma it was 3.08 µM; in the assay with EKVX NSCLC, 22.9 µM. For the same compound, the TGI in the assay with RPMI-8226 leukemia is 5.13 µM; with UO-31 renal, 4.01 µM; with MALME-3M melanoma, 3.31 µM; with MCF7 breast it was 3.99 µM.
As for `N[C@@H](Cc1c[nH]c2ccccc12)C(=O)NC1CCN(Cc2c[nH]c3ccc(Cl)cc23)CC1`, the GI50 in the assay with HL-60(TB) leukemia is 7.04 µM; in the assay on UACC-62 melanoma, 5.56 µM; in the assay on SF-539 CNS, 5.62 µM; with MDA-MB-231 breast, 2.32 µM; in the assay on SK-MEL-5 melanoma, 13.1 µM; with EKVX NSCLC it was 10.9 µM. Also, the GI50 in the assay with RPMI-8226 leukemia is 6.23 µM; with UO-31 renal, 13 µM; with MALME-3M melanoma, 1.86 µM; with MCF7 breast it was 5.63 µM. Also, the TGI worked out at 24.4 µM in the assay with HL-60(TB) leukemia; 18.3 µM in the assay on UACC-62 melanoma; 20.2 µM in the assay with SF-539 CNS; 6 µM in the assay on MDA-MB-231 breast; 25.9 µM with SK-MEL-5 melanoma; 25.1 µM with EKVX NSCLC. Besides, the TGI with RPMI-8226 leukemia came out at 23.3 µM; with UO-31 renal, 26.4 µM; in the assay with MALME-3M melanoma, 3.98 µM; in the assay on MCF7 breast, 20.9 µM.
As to `OCC#Cc1ccccc1C#Cc1ccc(C#Cc2ccccc2C#CCO)cc1`, the GI50 with HL-60(TB) leukemia is 90.5 µM; in the assay with UACC-62 melanoma, 58.6 µM; with SF-539 CNS, 34.9 µM; with MDA-MB-231 breast, 25.5 µM; with SK-MEL-5 melanoma, 23.7 µM; in the assay on EKVX NSCLC it was 34.6 µM. In addition, the GI50 in the assay on RPMI-8226 leukemia was 26.4 µM; in the assay with UO-31 renal, 36 µM; in the assay on MALME-3M melanoma it was 98.9 µM; with MCF7 breast it was 26.3 µM. The TGI in the assay on HL-60(TB) leukemia is above 100 µM; in the assay with UACC-62 melanoma, above 100 µM; in the assay on SF-539 CNS it was 91.5 µM; in the assay with MDA-MB-231 breast, 58.1 µM; with SK-MEL-5 melanoma, 59.3 µM; in the assay with EKVX NSCLC, 97.1 µM. Also, the TGI with RPMI-8226 leukemia is 89.3 µM; in the assay with UO-31 renal, above 100 µM; in the assay on MALME-3M melanoma, above 100 µM; in the assay with MCF7 breast, above 100 µM.
